Data reported in patent publication US8883512B1, “Method for diagnosing gestational diabetes, preeclampsia, and fetal growth restriction” (priority 2011, dated 2014).
“Also recorded” adds a separate entry of the source.

How the values were obtained:
[1] = tested on: pregnant Sprague-Dawley rats; experiment: Streptozotocin (STZ) animal model of gestational diabetes and preeclampsia: blood glucose, liver enzymes, arterial pressure, fetal and placental weights; assay type: in vivo, rat
Procedure: Pregnant Sprague-Dawley rats on day 6 of gestation were randomly assigned to STZ at 75 mg/kg I.P. or saline-infusion. On day 19, carotid artery catheters were implanted for measurement of arterial pressure, after which the animals were sacrificed, fetal and placental weights determined and blood samples obtained to measure liver enzymes and glucose. Subsequently, using the same procedure, a separate group of pregnant rats (n=10/group) was randomly assigned to receive STZ at 75 mg/kg I.P. or saline infusion. Serum concentrations of retinol, retinoic acid, and retinyl esters were determined in these animals by HPLC on Day 20. Retinoid toxicity was defined as the percentage of retinyl esters >10%.
(§1) The specific aims of this second experiment were to test the hypothesis that complications associated with GDM could be ameliorated with the retinoic acid receptor-alpha (RAR-alpha) antagonist, Ro41-5253. On day 6 of gestation, Sprague-Dawley rats were randomly assigned to one of five groups: 1) saline-infused controls; 2) STZ, 75 mg/kg I.P.; 3) STZ, 50 mg/kg I.P.; 4) STZ, 75+Ro41-5253 (0.5 mg/kg I.P. daily for 10 d); or 5) STZ, 75+Ro41-5253 (1.0 mg/kg I.P. daily for 10 days). Ro41-5253 was provided as a gift from Roche. On day 19, after carotid artery catheters were implanted for measurement of arterial pressure, the animals were sacrificed, fetal and placental weights were determined, and blood samples were obtained to measure liver enzymes and glucose.

[2] = tested on: pregnant Sprague-Dawley rats; experiment: RAR-alpha antagonist Ro41-5253 in the STZ (75 mg/kg) model of gestational diabetes; assay type: in vivo, rat
Procedure: as §1

[3] = better designed (low bias) trials of antioxidant supplements; cited from earlier work
[4] = STZ 75 mg/kg, I.P. Ro41-5253, listed as retinoid receptor antagonist

Compound: CN(N=O)C(=O)N[C@H]1C(O)O[C@H](CO)[C@@H](O)[C@@H]1O (mixture of isomers) [STZ, streptozotocin]
- blood glucose levels (mean) ([1]; STZ 75 mg/kg I.P. on gestation day 6, blood on day 19, saline controls 104): 533 mg/dL
- pup weights (mean) ([1]; STZ 75 mg/kg I.P., controls 4.6): 1.4 g
- alanine aminotransferase (mean) ([1]; STZ 75 mg/kg I.P., controls 63): 326 U/L
- alkaline phosphatase (mean) ([1]; STZ 75 mg/kg I.P., controls 123): 576 U/L
- asparate aminotransferase levels (mean) ([1]; STZ 75 mg/kg I.P., controls 152): 842 U/L
- placental weights ([1]; STZ, day 19): unaffected
- fetus size versus controls ([1]; groups receiving 75 mg/kg of STZ alone): smaller than controls
- arterial pressure ([1]; groups receiving both doses of STZ, P=0.1386): non-significant trend towards increased levels

Compound: CCCCCCCOc1cc2c(cc1/C(C)=C/c1ccc(C(=O)O)cc1)C(C)(C)CCS2(=O)=O [Ro41-5253]
- effect on blood glucose following STZ ([2]; Ro41-5253 0.5 mg/kg I.P. daily for 10 d, STZ 75 mg/kg): not by the lower dose; also recorded: no effect
- effect on blood glucose following STZ ([2]; Ro41-5253 1.0 mg/kg I.P. daily for 10 days, STZ 75 mg/kg): reduced; also recorded: decrease of approximately one-third
- reduction of alkaline phosphatase levels induced by STZ ([2]; STZ 75 mg/kg, FIG. 3): about 20%
- effect on alanine aminotransferase (ALT) elevation following STZ ([2]; STZ 75 mg/kg, I.P. Ro41-5253): markedly reduced (almost to control levels)
- effect on aspartate aminotransferase (AST) elevation following STZ ([2]; STZ 75 mg/kg, I.P. Ro41-5253): markedly reduced (almost to control levels)
- effect on alkaline phosphatase (AP) levels induced by STZ ([2]; STZ 75 mg/kg, I.P. Ro41-5253, listed as RAR-alpha antagonist): increased alkaline phosphatase levels in all animals, with or without
- effect on alanine aminotransferase (ALT) elevation following STZ [2, 4]: markedly reduced
- effect on aspartate aminotransferase (AST) elevation following STZ [2, 4]: markedly reduced
- placental weights ([2]; STZ model, day 19): unaffected
- effect on trend towards increased arterial pressure ([2]; higher dose of STZ, doses investigated): did not appear to be ameliorated

Compound: vitamin E
- increased risk of mortality [3]: 4%

Compound: vitamin A
- increased risk of mortality [3]: 16%

Compound: CC1=C(/C=C/C(C)=C/C=C/C(C)=C/C=C/C=C(C)/C=C/C=C(C)/C=C/C2=C(C)CCCC2(C)C)C(C)(C)CCC1 [beta-carotene]
- increased risk of mortality [3]: 7%
